Where a name gives a salt, the structure may show the parent alone.

This is an account of results in patent publication US20230414617A1, “PHARMACEUTICAL COMPOSITION COMPRISING ACID-BASE NEUTRALIZATION COMBINATION AND APPLICATION THEREOF” (CHENGDU KUACHANGAOPU MEDICAL TECHNOLOGY CO., LTD., priority 2020, published 2023).

Series [1] in a line: pH of the study drug aqueous solution. In kind it is physicochemical.
Series [2] has as its system breast cancer 4T1 cells. Kind of series: Tumor inhibition, breast cancer 4T1 transplantation tumor (Example 6). It counts as in vivo, BALB/c mouse. The conditions noted are these: intratumoral; for Tumor weight (x ± s): 150 μl/mouse, once every 3 days x3, 5th day after end; for Tumor inhibition rate: vs negative control. As to the method:
(§1) In the following examples of the present invention, the co-administration pharmaceutical efficacies of drug A and drug B combination administration was determined by ratio q of actual pharmaceutical efficacy/expected pharmaceutical efficacy according to Zhengjun JIN method, as follows.
(§2) In an experiment, the test animal was a BALB/c mouse, the modeling cells were breast cancer 4T1 cells, and the transplantation tumor was modeled at 1×10^5 cells/mouse under the skin of the animal's right axilla. Successfully modeled experimental animals (with an average tumor volume of 324 mm^3) were divided into 1 negative control group (group 0) and 9 drug study groups (groups 1-9). […] Each group was administered by intratumoral injection once every 3 days for a total of 3 times, each time at an injection dose of 150 μl/mouse. On the 5th day after the administration was ended, the animals were euthanized, and the tumor weight was measured after anatomy to the animals. The tumor inhibition rate was calculated from the negative control group.

Series [3] concerns sarcoma S180 cell. Description: Tumor inhibition effect in mice bearing sarcoma S180 cell (Example 2). The conditions noted are these: intratumoral injection; for Tumor weight (x ± s): 150 μl/mouse, once every 3 days x3, 5th day after end; for Tumor inhibition rate: vs negative control group 01. In kind it is in vivo. As to the method:
as §1
In the tumor inhibition effect study, successfully modeled experimental animals (mice bearing sarcoma S180 cell, with an average tumor volume of 314 mm^3) were randomly divided into 2 negative control groups (01, 02) and 9 drug study groups (1-9). […] The negative control and study drugs were administered by intraperitoneal injection (groups 02, 6 and 9) and intratumoral injection (other study groups), respectively. Each group was administered once every 3 days for a total of 3 times, with an injection volume of 150 μl/mouse. On the 5th day after the administration was ended, the animals were euthanized, and the tumor weight was measured after anatomy to the animals. The tumor inhibition rate was calculated from the negative control group of each drug administration mode.

Series [4] deals with liver tissue. Description: Tissue necrosis study: necrotic zone of liver tissue after intrahepatic injection (Example 2). It counts as in vivo, New Zealand Large White rabbits. Here is the method: The rabbits were kept on conventional diet after drug administration, euthanized after 1 week, and the necrotic zone of the liver was determined after autopsy. The liver was incised along the center of the necrotic zone, and the extent of the necrotic zone was measured at the largest level, and the maximum and minimum diameters of the necrotic zone were measured respectively. The average diameter of the necrotic zone of liver tissue=(maximum diameter+minimum diameter)/2.

For series [5], the system named is breast cancer 4T1 cells. Kind of series: Tumor inhibition, breast cancer 4T1 transplantation tumor (Example 7). In kind it is in vivo, BALB/c mouse. The conditions noted are these: intratumoral; for Tumor weight (x ± s): 150 ul/mouse, once every 3 days x3, 5th day after end; for Tumor inhibition rate: vs negative control. As to the method:
as §1
In an experiment, the test animal was a BALB/c mouse, the modeling cells were breast cancer 4T1 cells, and the transplantation tumor was modeled at 1×10^6 cells/mouse under the skin of the animal's right axilla. […] The negative controls and study drugs were administered intraperitoneally (groups 02, 11 and 15) and intratumorally (other study groups), respectively. All groups were dosed once every 3 days, for a total of 3 times, […], with an injection volume of 150 ul/mouse. On the 5th day after the administration was ended, the animals were euthanized, and the tumor weight was measured after anatomy to the animals. The tumor inhibition rate was calculated from the negative control group.

Series [6] concerns breast cancer 4T1 cells. Description: Tumor inhibition, breast cancer 4T1 transplantation tumor (Example 8). It counts as in vivo, BALB/c mouse. As to conditions: intratumoral; for Tumor weight (x ± s): 150 μl/mouse, once every 3 days x3, 5th day after end; for Tumor inhibition rate: vs negative control. As to the method: as §1
as §2, with “336” for “324”, “16” for “9”, “1-16).” for “1-9).”

For series [7], the system named is mouse liver cancer Hepa1-6 cells. Kind of series: Series B: tumor inhibition, Hepa1-6 transplantation tumor in 8-month-old mice (Example 10). In kind it is in vivo. As to conditions: one intratumoral injection 100 μl/mouse; for r'3d, tumor inhibition rate (tumor volume): day 3; for r'14d, tumor inhibition rate (tumor volume): day 14. Here is the method: The animals in series B were modeled in 8-month-old mice as a middle-aged and elderly patient model, which was not consistent with the commonly used young patient model in terms of tumor formation, tumor histomorphology, and body immunocompetence. […] The model animals were randomly divided into 13 groups. Each group was administered once by intratumoral injection according to the drug grouping in Table 11 with an injection volume of 100 μl/mouse.
The actual/expected ratio […] for short-term drug efficacy and the actual/expected ratio q14d for medium-term drug efficacy were calculated based on the drug efficacies (r′3d, […]) at different times (day 3, day 14), respectively.

Series [8] relates to tumor. Kind of series: Tumor inhibition rate, general statements (chemical ablation study; positive controls). It counts as in vivo.
The subject of series [9] is breast cancer 4T1 cells. Kind of series: Tumor inhibition, breast cancer 4T1 transplantation tumor (Example 3). In kind it is in vivo, BALB/c mouse. As to conditions: intratumoral. Here is the method: as §1
In an experiment, the test animal was a BALB/c mouse, the modeling cells were breast cancer 4T1 cells, and the transplantation tumor was modeled at 1×10^6 cells/mouse under the skin of the animal's right axilla. […] Each group was administered by intratumoral injection once every 3 days for a total of 3 times, each time at an injection dose of 150 μl/mouse. On the 5th day after the administration was ended, the animals were euthanized, and the tumor weight was determined after anatomy to the animals. The tumor inhibition rate was calculated from the negative control group.

Series [10] has as its system outer lateral muscle of right leg. Description: Series A: tissue destruction in normal muscle after intramuscular injection (Example 10). It counts as in vivo, nude mice. As to conditions: one intramuscular injection 100 μl/mouse, day 3. Here is the method:
The test animals were divided into two series, A and B. The animals in series A were non-modeled nude mice, randomly divided into four groups, and were injected with the drugs according to groups 1-4 in Table 11 by intramuscular injection of outer lateral muscle of right leg. Each group was administered once, at an injection volume of 100 μl/mouse. On day 3 after the administration was ended, the animals were euthanized, and the specimens from outer lateral muscle mass of right leg of the nude mice were dissected and taken out, and gross pathological analysis was performed. The muscle sections were measured for distinguishing the area of tissue destruction region in the normal muscle (incomplete necrosis) (T3a) and the area of severe tissue destruction region therein (complete necrosis) […], and the results are shown in Table 11 below.

Series [11] concerns breast cancer 4T1 cells. Description: Tumor inhibition, breast cancer 4T1 transplantation tumor (Example 4). It counts as in vivo, BALB/c mice. The conditions noted are these: intratumoral; for Tumor weight (x ± s): 150 μl/mouse, once every 3 days x3, 5th day after end; for Tumor inhibition rate: vs negative control. Here is the method:
as §1
In another experiment, the test animal was BALB/c mice, the modeling cells were breast cancer 4T1 cells, and the transplantation tumor was modeled at 1×10^6 cells/mouse under the skin of the animal's right axilla. Successfully modeled experimental animals (average tumor volume 307 mm^3) were randomly divided into 1 negative control group (group 0) and 13 drug study groups (groups 1-13). […] Each group was administered by intratumoral injection once every 3 days for a total of 3 times, each time at an injection dose of 150 μl/mouse. On the 5th day after the administration was ended, the animals were euthanized, and the tumor weight was measured after anatomy to the animals. The tumor inhibition rate was calculated from the negative control group.

Setting [12] is: study drugs of Example 6 (Table 8), aqueous solution.
The mark [13] stands for this setting: study drugs of Example 2 (Table 4), aqueous solution.
The mark [14] stands for this setting: positive controls, under the conditions of the following examples.
The mark [15] stands for this setting: study drugs of Example 4 (Table 6), aqueous solution.

As for `Cl` [3.5% hydrochloric acid, hydrochloric acid], in [1] (setting [12]), the pH is recorded as 0.1. In series [2], the “Tumor weight (x ± s)” value turned out to be 0.82 ± 0.18 g and the Tumor inhibition rate came out at 71%.
`[Na+].[OH-]` [0.3% NaOH, sodium hydroxide]: in series [3], the “Tumor weight (x ± s)” value amounted to 1.52 ± 0.22 g and the Tumor inhibition rate is 31%. For the same compound, in [4] (rabbit, in vivo), the “Diameter of necrotic zone of liver tissue (r ± s)” value is on record as 1.3 ± 0.3 cm. In series [1] (setting [13]), this compound had a pH of 13.3.
Take `CN(C)c1ccc2nc3ccc(=[N+](C)C)cc-3sc2c1` [1% methylene blue, methylene blue]: in series [5], the “Tumor weight (x ± s)” value worked out at 1.72 ± 0.27 g and the Tumor inhibition rate is recorded as 21%. For the same compound, in series [6], the “Tumor weight (x ± s)” value came to 1.73 ± 0.23 g and the Tumor inhibition rate amounted to 23%. For the same compound, in [7], the “r'3d, tumor inhibition rate (tumor volume)” value (“r'3d, tumor inhibition rate” below) is 27.8% and the “r'14d, tumor inhibition rate (tumor volume)” value (“r'14d, tumor inhibition rate” for short) stood at 16.9%.
In series [8] (setting [14]), `O=c1[nH]cc(F)c(=O)[nH]1` [0.5-1% 5-fluorouracil, 5-fluorouracil] displayed a Tumor inhibition rate of at least 30%.
Take `C=C[C@H]1C[N@@]2CC[C@H]1C[C@H]2[C@H](O)c1ccnc2ccc(OC)cc12` [3% quinine monohydrochloride, quinine monohydrochloride]: in [6] (monohydrochloride), the “Tumor weight (x ± s)” value was determined as 1.71 ± 0.26 g and the Tumor inhibition rate is recorded as 24%.
For `C=C[C@H]1C[N@@]2CC[C@H]1C[C@H]2[C@H](O)c1ccnc2ccc(OC)cc12` [5% quinine dihydrochloride, quinine dihydrochloride], in series [6] (dihydrochloride), the “Tumor weight (x ± s)” value was 1.46 ± 0.21 g and the Tumor inhibition rate amounted to 35%.
In the case of `Cl` [0.4% hydrochloric acid, hydrochloric acid], the pH in [1] (setting [12]) is recorded as 0.1. In series [2], the “Tumor weight (x ± s)” value turned out to be 1.65 ± 0.21 g and the Tumor inhibition rate is 21%.
In the same order, the values of `Cl` [5% hydrochloric acid, hydrochloric acid] are 0.1, 0.36 ± 0.14 g and 83%.
As to `O=C([O-])O.[Na+]` [7% sodium bicarbonate, sodium bicarbonate], in [3], the “Tumor weight (x ± s)” value amounted to 1.59 ± 0.20 g and the Tumor inhibition rate is recorded as 28%. For the same compound, in [1] (setting [13]), the pH is 8.1. The pH in [1] (study drugs of Example 3 (Table 5), aqueous solution) is 8.1. In addition, the “Tumor weight (x ± s)” value in series [9] (150 μl/mouse, once every 3 days x3, 5th day after end) is on record as 1.73 ± 0.27 g. In [9] (vs negative control), the Tumor inhibition rate is reported as 29%. Moreover, in [10], the “S3d, area of severe tissue destruction region (complete necrosis)” value was found to be 0 mm^2 and the “T3d, area of tissue destruction region in the normal muscle (incomplete necrosis)” value worked out at 0 mm^2. In addition, in series [7], the “r'3d, tumor inhibition rate” value was determined as 4.1% and the “r'14d, tumor inhibition rate” value is given as 3.9%.
With `CCO` [75-99% ethanol, ethanol], the Tumor inhibition rate in series [8] (setting [14]) is on record as at least 15%.
With `[Na+].[OH-]` [sodium hydroxide], in series [1] (sodium hydroxide solution before and after neutralization with sodium bicarbonate (e.g.)), the pH came to 12. This compound displayed a Tumor inhibition rate in series [8] (chemical ablation study with basifying agents, model not stated) of 43%.
Turning to `CCN(CC)c1ccc(C(=C2C=CC(=[N+](CC)CC)C=C2)c2cc(O)c(S(=O)(=O)O)cc2S(=O)(=O)O)cc1` [1% patent blue, patent blue], in [6], the “Tumor weight (x ± s)” value was 1.71 ± 0.25 g and the Tumor inhibition rate is 24%.
Turning to `O=C([O-])O.[Na+]` [5% sodium bicarbonate, sodium bicarbonate], the pH in series [1] (setting [15]) and in series [1] (setting [12]) was 8.2 in each case. Besides, the “Tumor weight (x ± s)” value in series [11] is listed as 1.79 ± 0.24 g; in [2] it was 1.57 ± 0.20 g. The Tumor inhibition rate was 21% in series [11] and 25% in [2].
As for `N=C(N)NCCC[C@H](N)C(=O)O` [15% arginine, arginine], the figures for the “Tumor weight (x ± s)” value in series [3], in [11] and in series [5] were 2.01 ± 0.24 g, 1.74 ± 0.28 g and 1.64 ± 0.28 g, respectively. Moreover, the Tumor inhibition rate turned out to be 23% in series [3], 23% in series [11] and 25% in [5]. Also, the “Diameter of necrotic zone of liver tissue (r ± s)” value in series [4] (one intrahepatic injection of 1.0 mL, after 1 week) is recorded as 0.2 ± 0.1 cm. The pH stood at 10.9 in [1] (setting [13]); 11.0 in [1] (setting [15]); 10.9 in series [1] (study drugs of Example 7 (Table 9), aqueous solution).
In series [1] (setting [12]), `O=C([O-])O.[Na+]` [15% sodium bicarbonate, sodium bicarbonate] had a pH of 8.1. Also, in [2], the “Tumor weight (x ± s)” value is given as 1.29 ± 0.24 g and the Tumor inhibition rate came to 38%.
With yeast hydroxymethyl glucan, in series [7], the “r'3d, tumor inhibition rate” value was 4.5% and the “r'14d, tumor inhibition rate” value is 7.8%.
On to `O=c1[nH]cc(F)c(=O)[nH]1` [1% 5-fluorouracil, 5-fluorouracil], for which, in [5], the “Tumor weight (x ± s)” value is 1.07 ± 0.26 g and the Tumor inhibition rate worked out at 51%. In addition, in series [6], the “Tumor weight (x ± s)” value is given as 1.10 ± 0.26 g and the Tumor inhibition rate came to 51%. In addition, in series [7], the “r'3d, tumor inhibition rate” value is recorded as 26.8% and the “r'14d, tumor inhibition rate” value came out at 3.1%.
Take “dextran40 [2.5% dextran40 aqueous solution]”: in series [7], the “r'3d, tumor inhibition rate” value amounted to 4.2% and the “r'14d, tumor inhibition rate” value stood at 5.3%.
